Experimental findings from ChEMBL document CHEMBL1133175, “QSAR analysis of Delta(8)-THC analogues: relationship of side-chain conformation to cannabinoid receptor affinity and pharmacological potency” (J Med Chem, 2000) are described below.

The target of the first assay is T1, Cannabinoid receptor 1 (Homo sapiens, UniProt P21554). Put plainly: Tested for binding affinity against Cannabinoid receptor 1 (CB1).
T1 sequence (P21554 whole entry): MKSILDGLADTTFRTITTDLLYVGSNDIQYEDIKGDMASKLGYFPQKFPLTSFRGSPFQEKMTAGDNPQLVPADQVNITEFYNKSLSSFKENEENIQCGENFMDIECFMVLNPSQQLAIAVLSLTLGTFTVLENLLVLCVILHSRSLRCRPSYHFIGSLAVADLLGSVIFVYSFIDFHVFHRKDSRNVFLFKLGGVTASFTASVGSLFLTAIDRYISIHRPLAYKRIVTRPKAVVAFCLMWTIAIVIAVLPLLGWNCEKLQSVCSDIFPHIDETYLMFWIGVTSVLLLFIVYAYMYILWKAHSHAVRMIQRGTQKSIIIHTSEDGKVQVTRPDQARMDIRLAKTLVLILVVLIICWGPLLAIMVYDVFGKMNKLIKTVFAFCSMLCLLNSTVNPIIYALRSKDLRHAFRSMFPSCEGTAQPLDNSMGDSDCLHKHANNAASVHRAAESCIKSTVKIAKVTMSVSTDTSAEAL
The compound `CC1=CCC2C(C1)c1c(O)cc(CC#CCCO)cc1OC2(C)C` (stereo not given) registered a Kd of 448 nM. On the same count and under the same terms, in the case of `CC1=CCC2C(C1)c1c(O)cc(C/C=C/CCCC[N+](=O)[O-])cc1OC2(C)C` (stereo not given) it was 3.56 nM.

Compound `CC1=CCC2C(C1)c1c(O)cc(CC#CC(C)Br)cc1OC2(C)C` (stereo not given) had a Kd of 25 nM. Same read-out and setting: with `CC1=CCC2C(C1)c1c(O)cc(C/C=C/CCCF)cc1OC2(C)C` (stereo not given) the figure was 20.9 nM. As for `CCCCCCC(C)(C)c1cc(O)c2c(c1)OC(C)(C)C1CC=C(C)CC21` (stereo not given), binding was put at a Kd of 0.77 nM. This Kd lies about 27-fold lower than the previous one. Same read-out and setting: with `CC(=O)NCCC#CCc1cc(O)c2c(c1)OC(C)(C)C1CC=C(C)CC21` (stereo not given) the figure was 307 nM. The same measure, in the same setting: in the case of `COCCC/C=C/Cc1cc(O)c2c(c1)OC(C)(C)C1CC=C(C)CC21` (stereo not given) it was 11.5 nM; in that of `CC(=O)NCCC/C=C/Cc1cc(O)c2c(c1)OC(C)(C)C1CC=C(C)CC21` (stereo not given), 16.7 nM; in that of `CCCCCC#Cc1cc(O)c2c(c1)OC(C)(C)C1CC=C(C)CC21` (stereo not given), 36 nM.

As for `CC1=CCC2C(C1)c1c(O)cc(C/C=C/CCCO)cc1OC2(C)C` (stereo not given), the Kd amounted to 53.7 nM.

The next assay has as its target T1, Cannabinoid receptor 1. Put plainly: Tested for binding affinity against Cannabinoid receptor 1 (CB1).
Turning to `CCCCCC#CCc1cc(O)c2c(c1)OC(C)(C)C1CC=C(C)CC21` (stereo not given), binding was put at a Kd of 4.9 nM. `C#CCCCC#CCc1cc(O)c2c(c1)OC(C)(C)C1CC=C(C)CC21` (stereo not given): the Kd was determined as 4.7 nM.

The target in the next assay is T1, Cannabinoid receptor 1. Put plainly: Binding affinity against Cannabinoid receptor 1.
Consider `CC1=CCC2C(C1)c1c(O)cc(C/C=C/CCCC#N)cc1OC2(C)C` (stereo in doubt; 30), for which the Kd came out at 1.25 nM. That is a single-digit nanomolar value. On the same count and under the same terms, in the case of `CCCCC#CCCc1cc(O)c2c(c1)OC(C)(C)C1CC=C(C)CC21` (stereo not given) it was 9 nM; in that of `CCCCCC#CCc1cc(OC)c2c(c1)OC(C)(C)C1CC=C(C)CC21` (stereo not given), 189 nM.

`CCCC/C=C/CCc1cc(O)c2c(c1)OC(C)(C)C1CC=C(C)CC21` (stereo not given) yielded a Kd of 3.36 nM. The compound `CCCC#CCCCc1cc(O)c2c(c1)OC(C)(C)C1CC=C(C)CC21` (stereo not given) displayed a Kd of 19 nM. Same read-out and setting: with `COC(=O)C#CCCc1cc(O)c2c(c1)OC(C)(C)C1CC=C(C)CC21` (stereo not given) the figure was greater than 10000 nM.

In turn, `CCCCC/C=C/c1cc(O)c2c(c1)OC(C)(C)C1CC=C(C)CC21` (stereo not given) registered a Kd of 0.86 nM. This lies in the sub-nanomolar range. Still for that read-out and setting: with `CCC/C=C/CCCc1cc(O)c2c(c1)OC(C)(C)C1CC=C(C)CC21` (stereo not given) the figure was 11 nM. Still for that read-out and setting: with `CC1=CCC2C(C1)c1c(O)cc(C#CCCCC#N)cc1OC2(C)C` (stereo not given) the figure was 104 nM; with `CC1=CCC2C(C1)c1c(O)cc(CC#CCCC[N+](=O)[O-])cc1OC2(C)C` (stereo not given), 5.34 nM; with `CC1=CCC2C(C1)c1c(O)cc(CC#CCBr)cc1OC2(C)C` (stereo not given), 143 nM. Still for that read-out and setting: in the case of `COC(=O)C#CCc1cc(O)c2c(c1)OC(C)(C)C1CC=C(C)CC21` (stereo not given) it was 731 nM; in that of `C#CCCc1cc(O)c2c(c1)OC(C)(C)C1CC=C(C)CC21` (stereo not given), 367 nM. As for `CC1=CCC2C(C1)c1c(O)cc(CC#CCCC#N)cc1OC2(C)C` (stereo not given), the Kd was 31 nM. On the same count and under the same terms, with `CC1=CCC2C(C1)c1c(O)cc(C/C=C/CCCC#N)cc1OC2(C)C` (stereo in doubt; 29) the figure was 0.77 nM; with `C#CCCCC#Cc1cc(O)c2c(c1)OC(C)(C)C1CC=C(C)CC21` (stereo not given), 460 nM. Consider `CCCC#CCc1cc(O)c2c(c1)OC(C)(C)C1CC=C(C)CC21` (stereo not given), for which the Kd amounted to 11 nM. This Kd is about 42-fold lower than that of the compound before.

`CC1=CCC2C(C1)c1c(O)cc(C=C=CCCCC(=O)O)cc1OC2(C)C` (stereo not given) returned a Kd of 3170 nM.

`CCCCC/C=C/Cc1cc(O)c2c(c1)OC(C)(C)C1CC=C(C)CC21` (stereo not given) displayed a Kd of 3.19 nM. On the same count and under the same terms, with `CC1=CCC2C(C1)c1c(O)cc(CC#CCCCBr)cc1OC2(C)C` (stereo not given) the figure was 1.2 nM; with `CC1=CCC2C(C1)c1c(O)cccc1OC2(C)C` (stereo not given), 45 nM.

For `CCCCCCC#CCc1cc(O)c2c(c1)OC(C)(C)C1CC=C(C)CC21` (stereo not given), binding was put at a Kd of 3.7 nM.

`CC1=CCC2C(C1)c1c(O)cc(C/C=C/CCCBr)cc1OC2(C)C` (stereo not given) registered a Kd of 1.66 nM.
